The structures appear in SMILES notation. Active and inactive are the calls of the source. No cut-off for these calls is given here.

From ChEMBL document CHEMBL1134113, “Selective inhibition of Src SH2 by a novel thiol-targeting tricarbonyl-modified inhibitor and mechanistic analysis by (1)H/(13)C NMR spectroscopy” (Bioorg Med Chem Lett, 2001) come the findings set out here.

The target in experiment [1] is Proto-oncogene tyrosine-protein kinase Src (Homo sapiens, UniProt P12931, C188A). In words: (§1) Binding affinity for Cys188Ala Src SH2 domain mutant using BIAcore binding assay.
The target in experiment [2] is T1, Proto-oncogene tyrosine-protein kinase Src (Homo sapiens, UniProt P12931). The experiment is described as follows: Binding affinity for wild type Src SH2 domain using BIAcore binding assay.
The target in experiment [3] is T1, Proto-oncogene tyrosine-protein kinase Src. In words: Selectivity for Src SH2 domain compared to Cys188Ala Src SH2 domain mutants.
Experiment [4] concerns Proto-oncogene tyrosine-protein kinase Src (Homo sapiens), P12931 [C188A]. The experiment is described as §1. As to conditions: concentration not given here.

With `CC[C@H](C)[C@H](NC(=O)[C@H](CCC(=O)O)NC(=O)[C@H](CCC(=O)O)NC(=O)C(Cc1ccc(C(=O)C(=O)C(=O)OC)cc1)NC(C)=O)C(N)=O` (stereo not given in full), the half-maximal inhibitory concentration (IC50) was more than 1000 µM in experiment [1] and 2.3 µM in experiment [2]. In addition, the Selectivity entry in experiment [3] was “Active”.
In the same order, the values of `CC[C@H](C)[C@H](NC(=O)[C@H](CCC(=O)O)NC(=O)[C@H](CCC(=O)O)NC(=O)CCc1ccc(C(=O)C(O)(O)C(=O)OC)cc1)C(N)=O` are more than 1000 µM, 20 µM and “Active”.
In the case of `CC[C@H](C)[C@H](NC(=O)[C@H](CCC(=O)O)NC(=O)[C@H](CCC(=O)O)NC(=O)CCc1cccc(C(=O)O)c1)C(N)=O`, in experiment [4], the inhibition was found to be 15%. Also, in experiment [2], the IC50 is 250 µM. Moreover, in experiment [3], the Selectivity entry is “inactive”.
`CC[C@H](C)[C@H](NC(=O)[C@H](CCC(=O)O)NC(=O)[C@H](CCC(=O)O)NC(=O)CCc1cccc(C(=O)C(O)(O)C(=O)OC)c1)C(N)=O`: the IC50 in experiment [1] is more than 1000 µM; in experiment [2] it was 18 µM. Also, the Selectivity entry in experiment [3] is “Active”.
As to `COC(=O)C(O)(O)C(=O)c1ccccc1`, the IC50 in experiment [1] was more than 1000 µM; in experiment [2], 100 µM. Besides, in experiment [3], the Selectivity result was “Active”.
In the same order, the values of `COC(=O)C(=O)C(=O)c1ccc(CC(NC(C)=O)C(=O)N[C@@H](CCC(=O)O)C(=O)N[C@H](C(=O)N[C@@H](CC(C)C)C(N)=O)[C@@H](C)O)cc1` (stereo not given in full) are more than 1000 µM, 8.6 µM and “Active”.
Consider `CC[C@H](C)[C@H](NC(=O)[C@H](CCC(=O)O)NC(=O)[C@H](CCC(=O)O)NC(=O)[C@@H](N)Cc1ccc(OP(=O)(O)O)cc1)C(=O)O`, for which the IC50 in experiment [1] came to 1.33 µM; in experiment [2], 1.2 µM.
